Test results reported in US8614064B2, “Methods of diagnosing atherosclerosis by measuring ApoCI” (The Johns Hopkins University, priority 2003, dated 2013).

Assays:
[1] = tested on: human aortic smooth muscles cells (ASMC); assay: Fluorescence microscope quantitative assay of apoptotic death (DAPI staining); type: cell-based; conditions: for apoptotic cells by white staining of the nucleus with DAPI (FIG. 1A): 2.5 μg/mL medium; for percent of apoptotic cells (DAPI, FIG. 1B): ApoCI and ApoCIII 2.5 μg/mL medium, ApoCI-enriched HDL 1 μg apoA-I/mL, ApoCI-poor HDL 5 μg apoA-I/mL, control 2.24%
Description: FIGS. 1A-1C depict the effect of apolipoproteins on apoptosis in human aortic smooth muscles cells (ASMC). ASMC were grown on sterilized glass cover slips and incubated for 24 hours with media alone (control), ApoCIII (negative control, 2.5 μg/mL medium), ApoCI (2.5 μg/mL medium), ApoCI-enriched HDL (1 μg apoA-I/mL medium), or ApoCI-poor HDL (5 μg apoA-I/mL medium) for 24 hours. Cells were then fixed with ethanol-acetic acid (3:1 volume/volume) and washed 3 times with phosphate-buffered saline. The cells were then stained with DAPI reagent, mounted on a glass cover slide, and subjected to fluorescence microscopy. FIG. 1A: The nucleus of normal cells stains blue and the nucleus of apoptotic cells stains is fragmented white. FIG. 1B: 300 to 500 cells in each sample were counted and the percent of apoptotic cells was plotted. Values are mean±SD; **P<0.01, ***P<0.001. FIG. 1C: DNA ladder assay. Confluent cultures of ASMC were incubated with control medium alone, ApoCI (2.5 μg/mL medium), ApoCIII (negative control, 2.5 μg/mL medium), and TNF-α (positive control, 20 ng/mL medium). Genomic DNA was extracted and 10 μg DNA was subjected to agarose gel electrophoresis. The gels were calibrated with commercially available DNA standards. After electrophoresis, the gels were stained with ethidium bromide and then photographed.
FIGS. 2A-2B depict the effect of ApoCI, the N-SMase inhibitor, GW4869, and C-2 ceramide on apoptosis in cultured human ASMC. FIG. 2A: ASMC (1×10^3) were seeded on sterilized glass cover slips and grown in tissue culture medium with 10% fetal calf serum for 48 hours. […] Thirty minutes later, vehicle DMSO, ApoCI (2.5 μg/mL), or C2-ceramide (10 μmol/L) were added to dishes, and the incubation continued for 24 hours. The cells were then fixed with ethanol-acetic acid (3:1 v/v), stained with DAPI reagent, assessed by fluorescent microscopy, and photographed. Top to bottom: control cells; cells incubated with ApoCI± the N-SMase inhibitor, GW4869; and cells incubated with ApoCI GW4869, and C2-ceramide. FIG. 2B: The DAPI-stained ASMC from the four experimental conditions described was analyzed for quantitative apoptosis. Mean (SD) from 4 experiments. *P<0.05.
Human AoSMC that were negative for mycoplasma, hepatitis B and C and HIV-1 were purchased from Clonetics (San Diego, Calif.) and cultured in Dulbecco's minimal essential medium (Invitrogen, Carlsbad, Calif.) with 10% fetal bovine serum (Hyclone, Salt Lake City, Utah), 100-units/ml penicillin, 100-μg/ml streptomycin to confluence. The cells were incubated in serum-free medium for 30 min prior to initiating the experiments. Cells were then washed and harvested in PBS, and centrifuged at 1500 rpm for 5 min at 4° C. Protease inhibitors were then added and the pellets stored frozen at −30° C. until use.
1×10^3 cells were grown on sterilized glass cover slips in 6-well trays and treated with ApoCI (2.5 μg/ml medium), ApoCIII (2.5 μg/ml medium), tumor necrosis factor (TNF)-α (30 ng/ml), ApoCI-enriched HDL (1 μg apoA-I/ml medium) and ApoCI-poor HDL (5 μg apoA-I/ml medium). After 24 h incubation, the medium was removed, cells fixed with ethanol:acetic acid […] and stored at 4° C. Next, the fixing solution was removed and cells stored frozen at −30° C. Cover slips were mounted on the microscope slides and stained with DAPI reagent (4,6-diamino-2-phenylindol, dihydrochloride). The stained nuclei were visualized by fluorescence microscopy (Zeiss Axiovert 25). Apoptotic cells were determined after counting—500 cells in a double blind fashion.

N-SMase = assay: Neutral sphingomyelinase assay in treated ASMC ([14C]sphingomyelin substrate); type: cell-based, human
Description: FIGS. 3A-3C depict the effects of ApoCI, ApoCIII, TNF-α, ApoCI-enriched HDL, and ApoCI-poor HDL on the activity of N-SMase in ASMC. Confluent cultures of ASMC were preincubated for 30 minutes with serum-free (control) medium, then ApoCI (2.5 μg/mL medium), ApoCIII (2.5 μg/mL medium), TNF-α (20 ng/mL medium) (FIG. 3A, top), or ApoCI-enriched HDL (1 μg apoAI/mL medium), or ApoCI-poor HDL (5 μg apoA-I/mL medium) (FIG. 3B, middle) were added individually to cells. The cells were then incubated and harvested at the indicated time points, and the activity was of N-SMase determined using [^14C]sphingomyelin as substrate. The N-SMase activity in control cells was 22 nmol/h per milligram cell protein, and this value was considered as 100% activity. In a separate experiment (FIG. 3C bottom), cells (0.5×10^5) were seeded in P60 Petri dishes and grown in DMEM supplemented with 10% fetal bovine serum for 5 days. After preincubation of cells for 30 minutes in serum-free medium, increasing amounts of ApoCI were added. After incubation for 10 minutes, cells were harvested, and N-SMase activity was measured.
After stimulation with ApoCI ApoCI-enriched HDL and ApoCI-poor HDL, the cells were washed with 5 ml of PBS and harvested. The pellets were stored frozen at −70° C. and resuspended in 0.5 ml of buffer (100 mM Tris-HCl pH 7.4, 0.1% Triton X-100, 1 mM EDTA and protease inhibitors). The cell suspension was sonicated 3 times (3-s bursts) using a probe sonicator and centrifuged at 500×g at 4° C. for 5 min. The supernatant was used as the enzyme source. 100 μg of protein was assayed for neutral sphingomyelinase activity in a buffer consisting of 50 mM Tris-HCl, pH 7.4, 0.1% Triton X-100, 0.1 mg of bovine serum albumin, 5 mM MgCl2 and […] of [^14C]sphingomyelin (specific activity 50 mCi/mmol, from American Radiolabled Chemicals (St. Louis, Mo.). The samples were incubated at 37° C. for 2 h and terminated with the addition of 1 ml of 10% trichloroacetic acid. The precipitate was pelleted (1000×g at 4° C. for 30 min) and 1 ml of the supernatant was extracted with 1 ml of anhydrous diethyl ether. About 0.5 ml of the aqueous phase was removed for liquid scintillation counting (Ghosh, N., and Chatterjee, S. (1998) J. Biol. Chem. 264, 12554-12561).

pattern of N-SMase stimulation with time (N-SMase; ApoCIII 2.5 μg/mL, ApoCI-poor HDL 5 μg apoA-I/mL, time course to 60 min) | increase in the activity of N-SMase at 5 minutes (N-SMase; 5 min, ApoCI 2.5 μg/mL, TNF-α 20 ng/mL, ApoCI-enriched HDL 1 μg apoA-I/mL, control 22 nmol/h per mg protein = 100%) [fold] | Molecule | effect of GW4869 on ApoCI-induced apoptosis, lower dose ([1]; GW4869 10 μmol/L) | effect of GW4869 on ApoCI-induced apoptosis ([1]; GW4869 20 μmol/L, 30 min before ApoCI 2.5 μg/mL, 24 h) | apoptotic cells by white staining of the nucleus with DAPI (FIG. 1A) ([1]; 24 h) | percent of apoptotic cells (DAPI, FIG. 1B) ([1]; 24 h) [%] | ApoCI-induced apoptosis, percent apoptotic cells (FIG. 2B) ([1]; ApoCI 2.5 μg/mL, 24 h, control ~2%) [%] | maximum increase in N-SMase activity, concentration dependence (FIG. 3C) (N-SMase; ApoCI 2.5 μg/mL medium, 10 min incubation) [fold]
 |  | O=C(/C=C/c1ccc(/C=C/C(=O)Nc2ccc(C3=NCCN3)cc2)cc1)Nc1ccc(C2=NCCN2)cc1 [GW4869] | also observed | completely abrogated |  |  |  | 
Such a pattern was not seen |  | ApoCIII: purified human ApoCIII purchased from Academy Bio-Medical Company, used as negative control |  |  | only a few apoptotic cells | 4.78 |  | 
 | ~2 | Apolipoprotein C-I (TPDVSSALDKLKEFGNTLEDKARELISRIKQSELSAKMREWFSETFQKVKEKLKIDS; UniProt P02654 27-83, looked up) [ApoCI, 6.6-kDa single-chain plasma protein of 57 amino acids; purified human ApoCI purchased from Academy Bio-Medical Company] |  |  | many apoptotic cells | 26.19 | ~12 | 1.5
